Experimental data published in PubChem BioAssay (NCI).
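Results reflect a 48-hour exposure of cells in 96-well plates to compound at five concentrations. The concentration for 50% growth inhibition is given as GI50. TGI is the concentration that stops growth completely.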

What was measured:
Experiment in all cases: DTP human tumour cell line panel, 48 h
[1] = tested on: COLO 205 colon
[2] = tested on: HOP-92 NSCLC
[3] = tested on: IGROV1 ovarian
[4] = tested on: KM12 colon
[5] = tested on: LOX IMVI melanoma
[6] = tested on: OVCAR-8 ovarian
[7] = tested on: RPMI-8226 leukemia
[8] = tested on: SNB-75 CNS
[9] = tested on: TK-10 renal
[10] = tested on: A498 renal

| SMILES | TGI [1] [µM] | TGI [2] [µM] | TGI [3] [µM] | TGI [4] [µM] | TGI [5] [µM] | TGI [6] [µM] | TGI [7] [µM] | TGI [8] [µM] | TGI [9] [µM] | TGI [10] [µM] | GI50 [10] [µM] | GI50 [1] [µM] | GI50 [3] [µM] | GI50 [4] [µM] | GI50 [5] [µM] | GI50 [6] [µM] | GI50 [7] [µM] | GI50 [8] [µM] | GI50 [9] [µM] | GI50 [2] [µM] |
| --- | --- | --- | --- | --- | --- | --- | --- | --- | --- | --- | --- | --- | --- | --- | --- | --- | --- | --- | --- | --- |
| COc1ccc(C(c2c(O)c3ccccc3n(C)c2=O)c2c(O)c3ccccc3n(C)c2=O)cc1 | > 100 | > 100 | > 100 | > 100 | > 100 | > 100 | > 100 | > 100 | > 100 |  |  |  |  |  |  |  |  |  |  |  |
| CC(C)(C)c1ccc(C(O)c2ccc(C(C)(C)C)cc2)cc1 | 26.7 | 25.2 | 30.6 | 29.1 | 30.8 | 29.2 |  | 33.9 | 35.6 | 32.9 |  |  |  |  |  |  |  |  |  |  |
| Cn1cc(C2=C(c3cn(CCN)c4ccccc34)C(=O)NC2=O)c2ccccc21 | 7.15 |  | > 21 | > 20.6 | > 22.8 | > 22.3 | 15.5 | 6.72 | 18.8 | 17.6 | 7.79 | 2.7 | 9.3 | 6.69 | 6.05 | 6.3 | 6.29 | 0.587 | 6.3 |  |
| Cc1ccc(C)c(NC(=O)CC/C(=N\NC(=O)C(N)=O)C(C)C(=O)c2ccc(O)cc2)c1 (stereo not drawn) | > 100 | > 100 | > 100 | > 100 | > 100 | > 100 |  |  |  |  |  |  |  |  |  |  |  |  |  |  |
| O=C(/C=C\c1ccc(Cl)cc1Cl)c1cccs1 | 30.7 | 69.1 |  | 38.8 |  | 24.8 | 12.8 | 42.2 | 78.9 | 39 |  |  |  |  |  |  |  |  |  |  |
| C[C@@H]1C=C2C(=O)O[C@@H]3CC[C@H](C1)[C@]23O | 15.7 |  | 10.4 | 61.6 | 13.3 | 28.6 | 10.7 | 20.2 |  | 38.3 |  | 4.64 | 2.87 | 21.8 | 3.33 | 4.04 | 2.93 | 3.33 |  |  |
| NCCNC(=S)S | > 100 |  | > 100 | > 100 | > 100 | > 100 | 58.8 | > 100 | > 100 | > 100 |  |  |  |  |  |  |  |  |  |  |
| O=C(Nc1nc2ncn(CC(COc3ccccc3)OC(=O)c3ccccc3)c2c(=O)[nH]1)c1ccccc1 (stereo not drawn) |  |  | > 100 | > 100 | > 100 | > 100 | > 100 | > 100 |  | > 100 |  |  |  |  |  |  |  |  |  |  |
| COc1cc2nc(Nc3cccc(F)c3)nc(Nc3cc(C)[nH]n3)c2cc1OC | 4.99 | 3.21 |  | 3.32 | 3.11 | 5.61 | 5.6 | 2.95 | 3.68 |  |  | 2.25 |  | 1.64 | 1.72 | 1.76 | 1.69 | 1.52 | 1.82 | 1.67 |
| Cc1[nH]c(=O)[nH]c(=O)c1CO | > 100 | > 100 | > 100 | > 100 | > 100 | > 100 |  | > 100 | > 100 | > 100 | > 100 | > 100 | > 100 | > 100 | > 100 | > 100 |  | > 100 | > 100 | > 100 |
| CC1C=CC(=O)C(n2cc(F)c(=O)[nH]c2=O)O1 (stereo not drawn) | 35.9 | 35.5 | 45.2 |  | 33.6 | 65.4 | 38.7 | 38.2 | 34.4 |  |  |  |  |  |  |  |  |  |  |  |
| COc1cc(-n2cc(-c3ccc(Cl)cc3)[nH]c2=O)cc(OC)c1OC | > 100 |  | > 100 | > 100 | > 100 | 68.9 | > 100 | 50.5 | 42.8 | 44.8 | 19.8 | > 100 | 35.5 | 41.3 | 59.9 | 26.5 | 12.6 | 26.2 | 18.5 |  |
| CCC(C)C(NC(=O)C1CCCN1C(=O)C(NC(=O)C(C)N)C(C)C)C(N)=O (stereo not drawn) | > 100 | > 100 | > 100 | > 100 | > 100 | > 100 |  | > 100 | > 100 | > 100 | > 100 | > 100 | > 100 | > 100 | > 100 | > 100 |  | > 100 | > 100 | > 100 |
| COc1ccc(/C(C)=N/OC(=O)c2c(-c3ccccc3Cl)noc2C)cc1CN1CCOCC1 | 31.3 | 91.8 | 65.6 | 70.5 | 28.1 | > 100 | 93.6 | 94 | > 100 |  |  |  |  |  |  |  |  |  |  |  |
